System: SARS-CoV-2
Assay: microbe, parasite or virus in culture
Conditions: Severe acute respiratory syndrome coronavirus 2, Vero C1008, 48 h

Structure (SMILES)	IC50	IC50 (read-out: pIC50 (converted))
CC12CCC3c4ccc(OS(=O)(=O)O)cc4CCC3C1CCC2O (centres undefined)	> 20 µM	> 20 µM
C=CCc1ccccc1OC[C@@H](O)CNC(C)C	> 20 µM	> 20 µM
CC(=O)[C@H]1CC[C@H]2[C@@H]3CC=C4C[C@@H](OS(=O)(=O)O)CC[C@]4(C)[C@H]3CC[C@]12C	> 20 µM	> 20 µM
O=c1c2ccccc2nc2n1CCCC2	> 20 µM	> 20 µM
COc1cnc(NS(=O)(=O)c2ccc(N)cc2)nc1	> 20 µM	> 20 µM
CCN(CC)C(=O)c1ccc(O)c(OC)c1	> 20 µM	> 20 µM
CC(=O)c1ccc(C)cc1N[C@H](C(N)=O)c1c(Cl)cccc1Cl	> 20 µM	> 20 µM
COC(=O)[C@@H](N)CCCNC(=N)N[N+](=O)[O-]	> 20 µM	> 20 µM
NC1CCCCC1N (centres undefined)	> 20 µM	> 20 µM
CN1CCC(OC(c2ccccc2)c2ccccc2)CC1	> 20 µM	> 20 µM
CN1CCC[C@@H]1Cc1c[nH]c2ccc(CCS(=O)(=O)c3ccccc3)cc12	> 20 µM	> 20 µM
O=C1C(Cl)=C(Cl)C(=O)c2c(O)ccc(O)c21	> 20 µM	> 20 µM
CN(C)N=Nc1[nH]cnc1C(N)=O	> 20 µM	> 20 µM
NC(=O)c1[nH]cnc1N	> 20 µM	> 20 µM
CC(=O)OCC1=C(C(=O)O)N2C(=O)[C@@H](N)[C@H]2SC1	> 20 µM	> 20 µM
CC(=O)N[C@H]1[C@H]([C@H](O)[C@H](O)CO)O[C@](O)(C(=O)O)C[C@@H]1O	> 50.1 µM	> 50.1 µM
CC1CCC(C(C)C)C(=O)C1 (centres undefined)	> 20 µM	> 20 µM
CC(C)c1ccc2c(c1)CCC1C(C)(CN)CCCC21C (centres undefined)	> 20 µM	> 20 µM
N[C@H](Cn1ccc(=O)c(O)c1)C(=O)O	> 20 µM	> 20 µM
CC(C)N1CCN(c2ccc(N3CCN(c4ccc(OC[C@@H]5OC[C@@](Cn6cncn6)(c6ccc(F)cc6F)O5)cc4)CC3)cc2)C1=O	> 20 µM	> 20 µM
CC(C)CCC[C@@H](C)[C@H]1CC[C@H]2[C@@H]3CC=C4CC(O)CC[C@]4(C)[C@H]3CC[C@]12C (some centres undefined)	> 20 µM	> 20 µM
CC(=O)SC[C@@H](C)C(=O)N1CCC[C@H]1C(=O)N[C@@H](Cc1ccccc1)C(=O)O	> 20 µM	> 20 µM
CCCNS(=O)(=O)Nc1ncnc(OCCOc2ncc(Br)cn2)c1-c1ccc(Br)cc1	> 20 µM	> 20 µM
Cc1ccc2c([nH]c(=O)c3c(=O)cc(C(=O)OCCC(C)C)oc32)c1C	> 20 µM	> 20 µM
NC(=O)c1nc(F)cnc1O	> 50.1 µM	> 50.1 µM
CNC(=O)[C@@H](NC(=O)[C@H](CC(C)C)[C@H](O)C(=O)NO)C(C)(C)C	> 20 µM	> 20 µM

Structure (SMILES)	IC50	IC50 (read-out: pIC50 (converted))
CC(=O)N[C@H](Cc1c[nH]c2ccccc12)C(=O)O	> 20 µM	> 20 µM
COc1ccc(-c2cc(=O)c3c(O)cc(O[C@@H]4O[C@H](CO[C@H]5O[C@H](C)[C@@H](O)[C@H](O)[C@@H]5O)[C@@H](O)[C@H](O)[C@H]4O)cc3o2)cc1O	> 20 µM	> 20 µM
c1ccc2c(c1)cc1ccc3cccc4ccc2c1c34	> 20 µM	> 20 µM
COC(=O)N[C@H](C(=O)N1CCC[C@H]1c1ncc(-c2ccc(-c3ccc(-c4cnc([C@@H]5CC6(CN5C(=O)[C@@H](NC(=O)OC)C(C)C)OCCO6)[nH]4)cc3)cc2)[nH]1)C(C)C	> 20 µM	> 20 µM
NC1CC1c1ccccc1 (centres undefined)	> 20 µM	> 20 µM
C[C@]12CC[C@H](O)CC1CC[C@@H]1[C@@H]2CC[C@]2(C)C(=O)CC[C@@H]12 (some centres undefined)	> 20 µM	> 20 µM
CC=CC(=O)N(CC)c1ccccc1C	> 20 µM	> 20 µM
NC(CSSCC(N)C(=O)O)C(=O)O (centres undefined)	> 20 µM	> 20 µM
CC(=O)c1cnc2ccc(-c3cc(Cl)c(O)c(Cl)c3)nc2c1N[C@H]1CC[C@H](CN(C)C)CC1	> 20 µM	> 20 µM
CC(C)Cc1sc(-c2nccs2)nc1C(=O)NCc1ccc(F)cc1	> 20 µM	> 20 µM
O=C(O)c1ccc(C2CC2c2ccc(OCc3c(-c4c(Cl)cccc4Cl)noc3C3CC3)cc2Cl)cc1 (centres undefined)	> 20 µM	> 20 µM
COCc1c(-c2ccc(NC(=O)Nc3cc(C(F)(F)F)ccc3F)c(F)c2)c2c(N)ncnn2c1CN1CCOCC1	> 20 µM	> 20 µM
Nc1ccc(N)cc1	> 20 µM	> 20 µM
COc1cc2c(cc1Cc1cccc(Cl)c1F)c(=O)c(C(=O)O)cn2[C@@H](CO)C(C)C	> 20 µM	> 20 µM
Nc1ccc(F)cc1NC(=O)c1ccc(CNC(=O)/C=C/c2cccnc2)cc1	> 20 µM	> 20 µM
O=C(O)CCCCCCC[C@@H](O)[C@@H](O)CCCCCCO	> 20 µM	> 20 µM
OC[C@H]1O[C@H](O)C[C@@H](O)[C@@H]1O	> 20 µM	> 20 µM
C=C(C)C1CC=C(CO)CC1 (centres undefined)	> 20 µM	> 20 µM
CC(C)OC(=O)[C@H](C)NP(=O)(OC[C@H]1O[C@@H](n2ccc(=O)[nH]c2=O)[C@](C)(Cl)[C@@H]1O)Oc1ccccc1 (some centres undefined)	> 20 µM	> 20 µM
CC1=C(O)C(=O)C=C2C1=CC=C1C3(C)CC[C@@]4(C)CC[C@@](C)(C(=O)O)C[C@H]4[C@]3(C)CC[C@@]21C (some centres undefined)	> 20 µM	> 20 µM
CC(=O)[C@H]1CC[C@H]2[C@@H]3CCC4C[C@@H](O)CC[C@]4(C)[C@H]3CC[C@]12C (some centres undefined)	> 20 µM	> 20 µM
CC(C)CC1C(=O)N2CCCC2C2(O)OC(NC(=O)C3CC4c5cccc6[nH]cc(c56)CC4N(C)C3)(C(C)C)C(=O)N12 (centres undefined)	> 20 µM	> 20 µM
Cc1cn2nc([C@H]3CCCCN3C(=O)c3cc(Cl)ccc3NS(C)(=O)=O)cc2nc1N1CC[C@H](N)C1	> 20 µM	> 20 µM
N=C(N)Nc1ccc(C(=O)Oc2ccc3c(c2)OC[C@H]3CC(=O)N[C@@H](CC(=O)O)C(=O)O)cc1	> 20 µM	> 20 µM
O=C(O)c1ccc(CN2CC3CC2CN3Cc2ccc(Oc3ccc(-c4ncco4)cc3)cc2)cc1 (centres undefined)	> 20 µM	> 20 µM
O=C(O)CC/C=C\C[C@H]1CO[C@@H](c2ccccc2Cl)O[C@H]1c1ccccc1O	> 20 µM	> 20 µM

Structure (SMILES)	IC50	IC50 (read-out: pIC50 (converted))
c1ccc([C@@H]2CN=C3NCCN32)cc1	> 20 µM	> 20 µM
CN(C)[C@@H]1[C@@H]2C=CC[C@H]1c1ccccc1C2	> 20 µM	> 20 µM
C[C@@H]1CCC2[C@H](C)C3CC[C@@]4(O)[C@@H]5CC(=O)[C@H]6CC(=O)CC[C@]6(C)C5C[C@H]4[C@@H]3CN2C1 (some centres undefined)	> 20 µM	> 20 µM
Nc1ncnc2c1nc(Cl)n2C1O[C@H](CO)[C@@H](O)[C@H]1O (some centres undefined)	> 20 µM	> 20 µM
CCCCc1ncc(C=C(Cc2cccs2)C(=O)O)n1Cc1ccc(C(=O)O)cc1	> 20 µM	> 20 µM
COc1ccc(-c2nc3cc(C4=NNC(=O)C[C@H]4C)ccc3[nH]2)cc1	> 20 µM	> 20 µM
CC(CCC(=O)O)C1CCC2C3C[C@H](O)[C@@H]4C[C@H](O)CC[C@]4(C)C3CC[C@]12C (some centres undefined)	> 20 µM	> 20 µM
CN(C)C1C(O)=C(C(N)=O)C(=O)C2(O)C(O)=C3C(=O)c4c(O)ccc(Cl)c4C(C)(O)C3CC12 (centres undefined)	> 20 µM	> 20 µM
CCCCN1C[C@@H](O)[C@@H](O)[C@H](O)[C@H]1CO	> 20 µM	> 20 µM
CO[C@H]1C[C@@H]2CC[C@@H](C)[C@@](O)(O2)C(=O)C(=O)N2CCCC[C@H]2C(=O)O[C@H]([C@H](C)C[C@@H]2CC[C@H](n3cnnn3)[C@H](OC)C2)CC(=O)[C@H](C)/C=C(/C)[C@@H](O)[C@@H](OC)C(=O)[C@H](C)C[C@H](C)\C=C/C=C\C=C/1C	> 20 µM	> 20 µM
CC(C)OC(=O)[C@@H](C)NP(=O)(OC[C@H]1O[C@@H](n2ccc(=O)[nH]c2=O)[C@](C)(O)[C@@H]1O)Oc1ccccc1 (some centres undefined)	> 20 µM	> 20 µM
CCC(=O)Oc1ccc2c(c1)CCC1C2CCC2(C)C(OC(=O)CC)CCC12 (centres undefined)	> 20 µM	> 20 µM
C/C(=N/NC(=N)N)c1cc(NC(=O)CCCCCCCCC(=O)Nc2cc(/C(C)=N\NC(=N)N)cc(/C(C)=N/NC(=N)N)c2)cc(/C(C)=N/NC(=N)N)c1	> 20 µM	> 20 µM
CCC(C)C1OC2(CCC1C)CC1CC(C/C=C(/C)C(OC3CC(OC)C(OC4CC(OC)C(O)C(C)O4)C(C)O3)C(C)/C=C\C=C3\COC4C(O)C(C)=CC(C(=O)O1)C34O)O2 (centres undefined)	> 20 µM	> 20 µM
CC1CC[C@@]2(OC1)OC1CC3C4CC[C@H]5C[C@@H](O)CC[C@]5(C)C4C[C@@H](O)[C@]3(C)C1[C@@H]2C (some centres undefined)	> 20 µM	> 20 µM
OC[C@@H]1CCCN2CCCCC12 (some centres undefined)	> 20 µM	> 20 µM
CCOc1ccc(NC(=O)C(C)O)cc1 (centres undefined)	> 20 µM	> 20 µM
COC(=O)CCC(C)C1CCC2C3C(C[C@H](O)[C@]12C)[C@@]1(C)CC[C@@H](O)C[C@H]1C[C@H]3O (some centres undefined)	> 20 µM	> 20 µM
Cc1cn(Cc2ccc(Cl)cc2Cl)c2c(/C=C/C(=O)NS(=O)(=O)c3cc(Cl)c(Cl)s3)cc(F)cc12	> 20 µM	> 20 µM
CCOc1ccccc1O[C@@H](c1ccccc1)[C@H]1CNCCO1	> 20 µM	> 20 µM
CC1OC(n2cc(F)c(=O)[nH]c2=O)C(O)C1O (centres undefined)	> 20 µM	> 20 µM
O=C(/C=C/c1ccc(O)c(O)c1)OC(Cc1ccc(O)c(O)c1)C(=O)O (centres undefined)	> 20 µM	> 20 µM
CC(C)(C)C(=O)Oc1ccc(S(=O)(=O)Nc2ccccc2C(=O)NCC(=O)O)cc1	> 20 µM	> 20 µM
COc1cccc(OC)c1-c1ccc(C[C@H](NC(=O)c2c(Cl)cccc2Cl)C(=O)O)cc1	> 20 µM	> 20 µM
Cc1ccc(C[N+](C)(C)C)o1	> 20 µM	> 20 µM
